Read-outs that look alike come from different tables or passages of the source.
Key:
[1] = type: in vitro ADME; conditions: bovine, serum
in vitro = in vitro ADME; conditions: rabbit, cerebrospinal or other body fluid, pH 7
Protocol: This conversion kinetics test was carried out by incubating, at 37° C., 25 μl of a sample of the solution described above, with gentle stirring, with 8 μl of fresh rabbit tear. 2 μl samples were taken at intervals of 1, 2, 3 and 30 minutes, and were then analyzed by HPLC.

[2] = rat, in vivo, iv, 10 mg/kg
cornea = test: Confocal laser scanning opthalmoscope test (subacute ocular toxicity); conditions: rabbit cornea, 25 μl three times a day for four days; (XV) aqueous solution, Cyclosporin A 1% in olive oil
Protocol: The solutions were sterilized by passing them through 0.22 μm nitrocellulose filters.
This test was carried out on the same type of animal as previously. 25 μl of a solution as described above were instilled onto the cornea of the right eye three times a day for four days, and then once on the fourth day just before observation. After the final installation, the rabbits were sedated by administering ketamine hydrochloride and xylazine. A total of 25 μl of a solution of sodium fluorescein at 0.5% by weight/volume were instilled onto the eye in order to allow selective labeling of the surfaces possibly damaged. The eye was then rinsed for one minute with a saline solution at 37° C.
The opthalmoscope was coupled to an image analysis system in order to be able to reconstitute an image in three dimensions and to allow evaluation of the damaged areas.

[3] = Water-solubility by visual examination in 67 mM Sorensen phosphate buffers; type: physicochemical; conditions: 67 mM Sorensen phosphate buffer, ambient temperature
esterases = test: Enzymatic stability: hydrolysis in Hepes buffer in the presence of esterases; conditions: 50 mM Hepes buffer, pH 7.4, 37° C., FIG. 1
Protocol: During the incubation at 37° C., 40 μl aliquots are sampled at appropriate time periods and analyzed by HPLC and ESI-MS.

[4] = T1/22 (terminal half-life time)

Row | solubility ([3]; pH 5) | solubility ([3]; pH 6, read-out: Water-solubility at pH = 6) | solubility ([3]; pH 7) | solubility ([3]; pH 8, read-out: Water-solubility at pH = 8) | Structure (SMILES) | half-life [1] | metabolised at 0.05 h, 0.76 % (weight/volume) Cyclosporin A equivalent (in vitro) | AUC(0-inf) [2] | MRT [2] | clearance [2] | half-life ([2]; T1/21 (initial half-life time)) | half-life [2, 4] | CLSO, % lesions (corneal lesions) (cornea) | hydrolysis in the presence of esterases (release of Cyclosporin A) (esterases)
1 |  |  |  |  | C/C=C/C[C@@H](C)[C@@H](OC(=O)CN(C)C(=O)[C@H](CCCC[N+](C)(C)C)NC(=O)OC(C)OC(C)=O)[C@H]1C(=O)N[C@@H](CC)C(=O)N(C)CC(=O)N(C)[C@@H](CC(C)C)C(=O)N[C@@H](C(C)C)C(=O)N(C)[C@@H](CC(C)C)C(=O)N[C@@H](C)C(=O)N[C@H](C)C(=O)N(C)[C@@H](CC(C)C)C(=O)N(C)[C@@H](CC(C)C)C(=O)N(C)[C@@H](C(C)C)C(=O)N1C (stereo partly shown) [(XV), MeBmt(O-Sar-Lys(Nε^+Me3)-COOCH(CH3)OCOCH3))^1-CsA.I^−] | 3.66 h | 3% | 66600 ng·h/mL | 15.3 h | 2.5 mL/min/kg | 0.55 h | 11.8 h | 7% | 
2 | > 20 mM | > 20 mM | > 20 mM | > 20 mM | C/C=C/C[C@@H](C)[C@@H](OC(=O)CN(C)C(=O)[C@H](COP(=O)(O)O)NC(=O)OC(C)OC(C)=O)[C@H]1C(=O)N[C@@H](CC)C(=O)N(C)CC(=O)N(C)[C@@H](CC(C)C)C(=O)N[C@@H](C(C)C)C(=O)N(C)[C@@H](CC(C)C)C(=O)N[C@@H](C)C(=O)N[C@H](C)C(=O)N(C)[C@@H](CC(C)C)C(=O)N(C)[C@@H](CC(C)C)C(=O)N(C)[C@@H](C(C)C)C(=O)N1C (stereo partly shown) [(XVI), MeBmt(O-Sar-Ser(OPO(OH)2)—COOCH(CH3)OCOCH3)^1-CsA] | 3.5 h |  | 44700 ng·h/mL | 14.9 h | 3.67 mL/min/kg | 0.2 h | 11.8 h |  | rapidly degrades to release the Cyclosporin A

Source: patent US6995139B2, “Cyclic undecapeptide pro-drugs and uses thereof” (Debiopharm S.A., priority 2001, dated 2006)
